According to publication PMC12435690, “KYLO-0603, a novel liver-targeting, thyroid hormone receptor-β agonist for the inhibition of MASH progression” (PLOS One, 2025):

Columns and labels:
[1] = tested on: MASH mouse model (F2 ~ 3); assay: MASH mouse model (F2~3) induced with HFD and CCl4; format: in vivo, C57BL/6J mice; set-up: Steatosis score / Lobular inflammation score / Ballooning score / NAFLD activity score / Fibrosis Score: scale not given here
Description: A total of 80 5-week-old C57BL/6J male mice were randomly assigned to two groups based on their body weight: a control group (n = 10) and a high-fat diet group (HFD, D12492, n = 70). During the eight-week feeding period, the mice in the two groups were provided with the corresponding diets, including shavings bedding, and their weights were recorded once a week. The change of the weight of each group of mice at a given time were recorded. […] The control diet group was provided with a control diet supplemented with the solvent vehicle, while the HFD control group was given a high-fat diet with the same supplement. The remaining […] groups were provided a high-fat diet containing the solvent and administered a range of doses of Kylo-0603, namely, 0.1 mg/kg, 0.3 mg/kg, 1 mg/kg, 3 mg/kg, and 10 mg/kg. The HFD control group was administered intraperitoneal injections of 0.2 ml/kg CCl4 twice a week for 8 weeks, during which time the mice were fed the same diets as before. The mice were weighed weekly, and the dosage for each week was determined based on their body weight at the commencement of that week. After a period of fasting of between 5 and 6 hours on the day following the final administration of the drug, the mice in each group were euthanized, whole blood was collected from either the orbits or the heart, and the serum was separated and stored at −80°C. The heart and liver tissues of the mice in each group were weighed and photographed. The heart tissues were then quickly frozen in liquid nitrogen and stored in a refrigerator at −80°C, and the middle lobe of the liver was divided into four parts. Two of these samples were quickly frozen in liquid nitrogen and stored at −80°C (for RNA sequencing). The remaining two portions were fixed in a 4% Paraformaldehyde solution and subsequently dehydrated for paraffin embedding and OCT embedding. […] For the quantification of hepatic lipid content, liver tissues were meticulously homogenized in isopropanol (1:9 tissue to isopropanol by mass/volume) on ice. The homogenate was then incubated overnight at 4°C and subsequently centrifuged to […]. The resulting solution was analyzed for TG and Chol using a Hitachi 7020 automated hematochemistry system.
The samples were then washed with pure water.

[2] = in vitro; conditions: Sprague-Dawley, rat, plasma
Description: (§1) We evaluated the metabolic stability of Kylo-0603 in the plasma of CD-1 mice, Sprague–Dawley (SD) rats, beagle dogs, cynomolgus monkeys, and humans. The plasma from the five species was mixed with Kylo-0603 (2 μM) and incubated at 37°C in a thermostatic water tank. The plasma concentrations of Kylo-0603 were monitored via LC-MS/MS at 0, 10, 30, 60, and 120 min.

[3] = in vitro; conditions: human, plasma
Description: as §1

[4] = tested on: HFD-induced obese mice; assay: HFD-induced obese mice, oral once daily treatment; conditions: for fat content reduction / increase in the percentage of lean mass / reduction in Chol level / reduction in LDL-C level: vs HFD control; for Ballooning score / Fibrosis Score / Lobular inflammation score / NAFLD activity score / Steatosis score: DIO mice, HFD
Description: Experiments were performed on 112 (n = 16/group) male C57BL/6J mice (5 weeks). After 3 days of acclimatization, the animals were randomly divided according to body weight into a control group (Chow Diet) and a HFD group (HFD, 60% calories as fat, Cat# D12492, Research Diet, Jiangsu Xietong Pharmaceutical Bioengineering Co., Ltd.). The mice were fed with the corresponding diets for 16 weeks (with bedding shavings and a high-fat diet changed twice a week), during which the bedding shavings and high-fat diet (HFD) were refreshed twice weekly (see S1 Fig). Body weights were recorded on a weekly basis throughout this period. […] A separate cohort of mice, fed a standard chow diet, served as normal controls and received daily oral gavages of the vehicle. At the end of the experiment, the mice were fasted for 6 hours and then sacrificed. The animals were euthanized by CO2 inhalation and blood were collected along with liver and heart tissues. Collected blood samples were centrifuged to obtain the serum for the detection of cholesterol, triglyceride, and low-density lipoprotein cholesterol. The heart and liver tissues were weighed and photographed. The livers and hearts of the mice were rapidly removed and washed with cold saline. Half of the left lobe of liver was fixed in 4% neutral paraformaldehyde, and the remaining part of livers and hearts were snap-frozen and stored at −80°C for further analysis. The concentrations of serum lipids and liver enzymes from orbital or cardiac blood were determined by measuring triglycerides (TG), cholesterol (Chol), Low-density lipoprotein cholesterol (LDL-C), alanine transaminase (ALT), and aspartate transaminase (AST) levels using a Hitachi 7020 automated hematology laboratory and a Wako kit.
The dewaxed tissue slides were incubated in the alcohol-free hematoxylin staining solution for a period of 3–5 minutes, followed by thorough rinsing with running tap water. The slides were then subjected to differentiated and bluing for several seconds, after which they underwent sequential dehydration through a series of ethanol solutions with increasing concentrations (50%, 70%, 85%, and 95%). They were then subjected to eosin staining for a period of 5–10 minutes. The slides were then dehydrated sequentially with 95%, 100%, and 100% ethanol before being cleared with xylene. Finally, the slides were sealed with neutral gum, dried, and imaged.
The frozen sections were immersed in 60% isopropyl alcohol for 3–5 minutes, followed by immersion in Oil Red staining solution for 3–5 minutes. The samples were then washed with pure water. Following a wash with pure water, the nuclei were restained with hematoxylin, after which the sections were sealed with 50% glycerol, dried and photographed for imaging.
The dewaxed slides were rinsed in running water, stained with Sirius Red for 8–10 minutes, washed slightly in anhydrous ethanol, dehydrated, made transparent by gradient ethanol and xylene, and finally sealed with neutral gum, dried and photographed for imaging.

[5] = 3 mg/kg, 8 weeks, vs HFD + CCl4 + Vehicle
[6] = 10 mg/kg, 8 weeks, vs HFD + CCl4 + Vehicle
[7] = abstract: MASH mouse model, maximum effect

## CC(=O)N[C@H]1[C@H](OCCCCCCNC(=O)CCOCC(COCCC(=O)NCCCCCCO[C@@H]2O[C@H](CO)[C@H](O)[C@H](O)[C@H]2NC(C)=O)(COCCC(=O)NCCCCCCO[C@@H]2O[C@H](CO)[C@H](O)[C@H](O)[C@H]2NC(C)=O)NC(=O)CCCCCNC(=O)COc2cc(C)c(Cc3ccc(O)c(C(C)C)c3)c(C)c2)O[C@H](CO)[C@H](O)[C@@H]1O [Kylo-0603]
[1]; 3 mg/kg and 10 mg/kg, 8 weeks, vs HFD + CCl4 + Vehicle
  decrease of fibrosis score: 0.6 points
[1]; 3 mg/kg, 8 weeks, serum
  ALT decrease: 73.8%
  AST decrease: 76.3%
[1]; [5]
  decrease in ballooning degeneration score: 0.7 points
  reduction in hepatic steatosis score: exceeding 1.0 points
  reduction in inflammation score: exceeding 1.0 points
  reduction of NAS (NAFLD Activity Score): 3.5 points
[1]; [6]
  decrease in ballooning degeneration score: 0.8 points
  reduction in hepatic steatosis score: exceeding 1.0 points
  reduction in inflammation score: exceeding 1.0 points
  reduction of NAS (NAFLD Activity Score): 3.7 points
[1]; 8 weeks, blood
  TSH levels: decreasing trends
  levels of thyroid hormones T3, fT3, T4 and fT4: increasing trends
[1]; HFD + CCl4, 0.1 mg/kg, 8 weeks
  Ballooning score: 1.4 ± 0.5
  Fibrosis Score: 2.8 ± 0.4
  Lobular inflammation score: 2.4 ± 0.5
  NAFLD activity score: 4.7 ± 0.9
  Steatosis score: 0.8 ± 1.0
[1]; HFD + CCl4, 0.3 mg/kg, 8 weeks
  Ballooning score: 1.4 ± 0.5
  Fibrosis Score: 2.3 ± 0.5
  Lobular inflammation score: 2.2 ± 0.4
  NAFLD activity score: 4.0 ± 0.9
  Steatosis score: 0.3 ± 0.5
[1]; HFD + CCl4, 1 mg/kg, 8 weeks
  Ballooning score: 2.0 ± 0.0
  Fibrosis Score: 2.3 ± 0.5
  Lobular inflammation score: 2.2 ± 0.4
  NAFLD activity score: 4.3 ± 0.5
  Steatosis score: 0.1 ± 0.3
[1]; HFD + CCl4, 3 mg/kg, 8 weeks
  Ballooning score: 1.1 ± 0.3
  Fibrosis Score: 2.0 ± 0.0
  Lobular inflammation score: 1.4 ± 0.5
  NAFLD activity score: 2.8 ± 1.0
  Steatosis score: 0.2 ± 0.4
[1]; HFD + CCl4, 10 mg/kg, 8 weeks
  Ballooning score: 1.0 ± 0.7
  Fibrosis Score: 2.0 ± 0.0
  Lobular inflammation score: 1.1 ± 0.5
  NAFLD activity score: 2.6 ± 1.0
  Steatosis score: 0.4 ± 1.0
[1]; abstract
  decrease of fibrosis score: 0.6 points
[1]; abstract, maximum effect
  decrease of ballooning score: 0.8 points
  decrease of inflammation score: 1.8 points
  reduction of NAS: up to 3.7 points
[1]; [7]
  lowering of LDL-C levels: up to 88.2%
  lowering of serum cholesterol levels: ≤ 69.2%
[2]
  half-life at 2 μM: > 6.21 h
[3]
  half-life at 2 μM: > 6.21 h
[4]; 0.1 mg/kg PO once daily, 10 weeks
  body weight reduction vs HFD control group: 0.8%
[4]; 0.1 mg/kg, 8 weeks
  fat content reduction: 8.96%
  increase in the percentage of lean mass: 5.32%
  Ballooning score: 1.6 ± 0.5
  Fibrosis Score: 0.6 ± 0.5
  Lobular inflammation score: 1.0 ± 0.0
  NAFLD activity score: 5.0 ± 0.9
  Steatosis score: 2.4 ± 1.1
[4]; 0.1 mg/kg, 10 weeks
  reduction in Chol level: 30.6%
  reduction in LDL-C level: 58.0%
[4]; 0.3 mg/kg PO once daily, 10 weeks
  body weight reduction vs HFD control group: 4.8%
[4]; 0.3 mg/kg, 8 weeks
  fat content reduction: 9.16%
  increase in the percentage of lean mass: 10.95%
  Ballooning score: 1.4 ± 0.5
  Fibrosis Score: 0.4 ± 0.5
  Lobular inflammation score: 1.3 ± 0.5
  NAFLD activity score: 4.6 ± 1.2
  Steatosis score: 2.0 ± 1.4
[4]; 0.3 mg/kg, 10 weeks
  reduction in Chol level: 35.9%
  reduction in LDL-C level: 72.7%
[4]; 1 mg/kg PO once daily, 10 weeks
  body weight reduction vs HFD control group: 3.8%
[4]; 1 mg/kg, 8 weeks
  fat content reduction: 14.07%
  increase in the percentage of lean mass: 13.52%
  Ballooning score: 1.8 ± 0.5
  Fibrosis Score: 0.4 ± 0.5
  Lobular inflammation score: 1.1 ± 0.4
  NAFLD activity score: 4.4 ± 1.1
  Steatosis score: 1.5 ± 0.8
[4]; 1 mg/kg, 10 weeks
  reduction in Chol level: 47.9%
  reduction in LDL-C level: 81.8%
[4]; 3 mg/kg
  average reduction of triglyceride content in liver homogenates: up to 36.4%
[4]; 3 mg/kg PO once daily, 10 weeks
  body weight reduction vs HFD control group: 13.1%
[4]; 3 mg/kg, 2 weeks
  reduction in Chol level: 52.0%
  reduction in LDL-C level: 84.0%
[4]; 3 mg/kg, 8 weeks
  fat content reduction: 26.15%
  increase in the percentage of lean mass: 21.94%
  Ballooning score: 1.1 ± 1.0
  Fibrosis Score: 0.4 ± 0.5
  Lobular inflammation score: 1.1 ± 0.4
  NAFLD activity score: 3.4 ± 2.1
  Steatosis score: 1.1 ± 1.0
[4]; 3 mg/kg, 10 weeks
  reduction in Chol level: 53.9%
  reduction in LDL-C level: 79.7%
[4]; 10 mg/kg PO once daily, 10 weeks
  body weight reduction vs HFD control group: 15.8%
[4]; 10 mg/kg, 2 weeks
  reduction in Chol level: 64.5%
  reduction in LDL-C level: 85.8%
[4]; 10 mg/kg, 8 weeks
  fat content reduction: 44.35%
  increase in the percentage of lean mass: 37.91%
  Ballooning score: 1.0 ± 0.9
  Fibrosis Score: 0.3 ± 0.5
  Lobular inflammation score: 1.0 ± 0.0
  NAFLD activity score: 3.2 ± 1.3
  Steatosis score: 1.2 ± 0.8
[4]; 10 mg/kg, 10 weeks
  reduction in Chol level: 69.2%
  reduction in LDL-C level: 88.2%
[4]; 0.1-10 mg/kg, 8 weeks
  body length: not affected
  bone density: not affected
[4]; 2 and 10 weeks
  cholesterol content in liver homogenates: did not exert a notable influence
[4]; all dose groups (0.1-10 mg/kg), 10 weeks
  liver weight: significantly decreased
[4]; various doses (0.1-10 mg/kg), 10 weeks
  effect on heart weight: not significant
